For data set [1], the system named is skin of volunteers. To be noted: 10% solution applied to the skin, cited from earlier work.
The test system of data set [2] is hairless mouse. To be noted: repeated topical treatment; cited from earlier work.
Data set [3] has as its system UV-induced erythema. The settings on record: cited from earlier work.
For data set [4], the system named is SKH hairless mice. The settings on record: fed as sole carotenoid source; cited from earlier work.
Data set [5] concerns primed spleen cells. To be noted: cited from earlier work.
The subject of data set [6] is sunburn by UVR exposure. Briefly: Example 1: oral astaxanthin soft gel capsules in a subject with extreme propensity for sunburns. In kind it is in vivo, human. The method, then: Haematococcus algae meal containing 1.5% astaxanthin was thoroughly mixed with safflower oil such that the resulting suspension contained 2.0 mg of pure astaxanthin per gram of safflower oil suspension. 500 mg soft gel capsules were produced from the safflower oil suspension such that each soft gel capsule contained 1.0 mg of pure astaxanthin.
One individual was an adult with extreme propensity for sunburns. The subject had come to Hawaii for vacation and had already sunburned on a 10 minute walk with SPF 50 sunblock cream, long pants and sleeves. They then began taking 2 milligrams of astaxanthin of the above formulation per day. On the eleventh day, they took another walk in the afternoon, on a cloudy day, with long pants, a tee shirt, but without a hat or sunglasses. While 1 mile away from their condo, the clouds dissipated and they were exposed to the full sun while walking back.

Data set [7] deals with sunblister sores and sun sensitivity. Briefly: Example 2: oral astaxanthin in a construction worker with sunblister sores. To be noted: 4 milligrams per day oral. In kind it is in vivo, human. From the text:
An adult subject is a construction worker in Hawaii and is routinely exposed to the UVR of the sun while working outside. They were often affected by sunblister sores breaking out on their arm after a long day of sun exposure. The individual began taking 4 milligrams of astaxanthin per day derived from Haematococcus algae (as described in the above Example 1). Two milligrams of astaxanthin were consumed with lunch and 2 milligrams with dinner.
The individual stopped taking the astaxanthin formulation for two weeks and the blisters and sun sensitivity returned.

The subject of data set [8] is SKH1 hairless mice. To be noted: cited from earlier work.
The subject of data set [9] is rat kidney fibroblasts. The settings on record: cited from earlier work; for level necessary to protect against UV-induced loss of catalase (CAT) / level required to protect against loss of SOD activity / level that prevented the UVA-induced increase in TBARS: UVA light for four hours.
Data set [10] relates to vitamin E-deficient rats. To be noted: rat, in vivo; cited from earlier work.
Data set [11] concerns interleukin-1 alpha and tumor necrosis factor alpha. To be noted: mouse, in vivo; cited from earlier work.
Data set [12] relates to human blood. The settings on record: response to T-dependent stimuli; cited from earlier work.
Data set [13] deals with sunburn cells. The settings on record: in vivo; cited from earlier work.
Data set [14] deals with laboratory animals. The settings on record: applied up to 8 hours following UVB exposure; cited from earlier work.
Data set [15] deals with human sunburn response. The settings on record: oral supplementation, normal individuals; cited from earlier work.
The subject of data set [16] is basal-cell and squamous-cell carcinomas. The settings on record: 4.5 years, cited from earlier work.

The source of these data is US6433025B1, “Method for retarding and preventing sunburn by UV light” (Cyanotech Corporation, priority 2000, dated 2002).

Turning to `O=C1O[C@H]([C@@H](O)CO)C(O)=C1O` [vitamin C], in [1] (average), the “increase in amount of ultraviolet light needed to burn” value is recorded as 22%. The severity of burns entry in data set [1] is on record as “half of the volunteers experienced much less severe bums”.
With `O=C(OOC(=O)c1ccccc1)c1ccccc1` [benzoyl peroxide], the “cutaneous effects of repeated administration” value in [2] is given as “produces skin changes in the hairless mouse that qualitatively resemble those produced by ultraviolet B”.
With `COc1ccc2[nH]cc(CCNC(C)=O)c2c1` [melatonin], the “protective effects against UV-induced erythema” value in data set [3] (applied after UV irradiation) is given as “no significant protective effects”. The “development of UV-induced erythema” value in data set [3] (topical, 15 min before UV irradiation) is reported as “almost completely suppress”.
Turning to `CC(C)=CCC/C(C)=C/C=C/C(C)=C/C=C/C(C)=C/C=C/C=C(C)/C=C/C=C(C)/C=C/C=C(\C)CCC=C(C)C` [lycopene], the “probability of epidermal tumors” value in data set [4] is given as “tended to have higher probability of epidermal tumors”. Further, the “number of antibody-secreting cells from primed spleen cells” value (from here on “number of antibody-secreting cells”) in [5] is recorded as “not”.
Take `CC1=C(/C=C/C(C)=C/C=C/C(C)=C/C=C/C=C(C)/C=C/C=C(C)/C=C/C2=C(C)C(=O)[C@@H](O)CC2(C)C)C(C)(C)C[C@H](O)C1=O` [astaxanthin]: the “sunburn after exposure to the full sun” value in data set [6] (adult female, 2 milligrams of astaxanthin per day oral, eleventh day) is recorded as “not affected by the UVR exposure”. In addition, the “sunburn effects while wearing shorts outside” value in data set [6] (remainder of vacation, while taking the astaxanthin supplement) is reported as “without sunburn effects”. Further, in data set [7] (after 1 month), the “sensitivity to the sunlight” value is “noticeably improved” and the sunblister sores result is given as “all of their blisters were healed”. In data set [7] (after 2 weeks), the sunblister sores entry is on record as “blisters began to heal”. Moreover, in data set [7] (adult male, after 2 weeks), the “sensitivity to sun exposure” value is listed as “not sensitive to the sun exposure”. For the same compound, the “prevention of increases of free putrescine after irradiation” value in data set [8] (astaxanthin alone or in combination with retinol) is listed as “remarkably effective”. For the same compound, the “increase of epidermal putrescine after irradiation” value in data set [8] (diet 10-ppm astaxanthin, 4 months, ultraviolet light) is given as 1.5 fold. In addition, the “spermidine and spermine concentrations” value in data set [8] (groups fed astaxanthin) is “significantly lower”. Also, the “inhibitory effect on putrescine accumulation compared with dietary retinol” value in data set [8] (mouse, in vivo) is “stronger inhibitory effect”. In data set [9], the “level necessary to protect against UV-induced loss of catalase (CAT)” value is reported as 5 nM; the “level required to protect against loss of SOD activity” value was 5 nM; the “level that prevented the UVA-induced increase in TBARS” value is 1 nM; the “protection against UVA light-induced oxidative stress compared to lutein and beta-carotene” value is reported as “superior protection”. Further, the “probability of epidermal tumors” value in data set [4] is “tended to have higher probability of epidermal tumors”. The “mitochondrial damage caused by lipid peroxidation” value in data set [10] is “protects the mitochondria from damage”. The “release of interleukin-1 alpha and tumor necrosis factor alpha” value in data set [11] is “enhances the release of interleukin-1 alpha and tumor necrosis factor alpha in mice to a greater degree than canthaxanthin and beta-carotene”. In addition, the “number of antibody-secreting cells” value in data set [5] was “increased”. The “T-helper cell antibody production” value in [5] (even when suboptimal amounts of antigen were present) is recorded as “enhanced”. For the same compound, the “production of IgM, IgA and IgG antibodies” value in data set [12] is reported as “enhances”.
In the case of tocopherol, in data set [13], the “number of sunburn cells” value is listed as “decreased”.
Take `CC1=C[C@H](O)CC(C)(C)[C@H]1/C=C/C(C)=C/C=C/C(C)=C/C=C/C=C(C)/C=C/C=C(C)/C=C/C1=C(C)C[C@@H](O)CC1(C)C` [lutein]: in [9], the “level necessary to protect against UV-induced loss of catalase (CAT)” value was 100 nM, the “level required to protect against loss of SOD activity” value was 1000 nM and the “level that prevented the UVA-induced increase in TBARS” value is recorded as 1000 nM. Also, the “number of antibody-secreting cells” value in [5] was “not”.
`CC(=O)Oc1c(C)c(C)c2c(c1C)CCC(C)(CCC[C@H](C)CCC[C@H](C)CCCC(C)C)O2` (stereo partly drawn) [vitamin E acetate]: in [14], the “inflammation, skin sensitivity and skin damage” value was “prevented inflammation, skin sensitivity and skin damage”.
For the compound `CC1=C(/C=C/C(C)=C/C=C/C(C)=C/C=C/C=C(C)/C=C/C=C(C)/C=C/C2=C(C)C(=O)CCC2(C)C)C(C)(C)CCC1=O` [canthaxanthin], the “number of antibody-secreting cells” value in [5] is listed as “not”.
On to `CC1=C(/C=C/C(C)=C/C=C/C(C)=C/C=C/C=C(C)/C=C/C=C(C)/C=C/C2=C(C)CCCC2(C)C)C(C)(C)CCC1` [beta-carotene], for which, in data set [9], the “level necessary to protect against UV-induced loss of catalase (CAT)” value is reported as 1000 nM, the “level required to protect against loss of SOD activity” value was 500 nM and the “level that prevented the UVA-induced increase in TBARS” value is 100 nM. Moreover, in data set [4], the “probability of epidermal tumors” value was “tended to have higher probability of epidermal tumors”. Moreover, the “severity of cutaneous photodamage” value in [15] is recorded as “unlikely to modify”. The “incidence of basal-cell or squamous-cell carcinoma versus placebo” value in data set [16] (30 mg per day) was “no significant difference”. For the same compound, the “incidence of basal-cell carcinoma in terms of number of tumors” value in data set [16] is given as “no effect”. For the same compound, the “number of antibody-secreting cells” value in [5] was “not”.
